Results reported in patent publication US20260226096A1, “MODIFIED PROTEINS OR PEPTIDES FOR COVALENT TARGETING” (YEDA RESEARCH AND DEVELOPMENT CO. LTD., priority 2023, published 2026).
Non-standard residues stand in square brackets, D forms with d. Residues, ends and D or L forms follow the SMILES beside them. Primed or numbered codes have the meaning given here. No end group written: not given here. *: point of attachment. Pra′ = its azide, alkyne or alkene has reacted where a group follows in round brackets; methacrylate = methacrylate-modified cysteine (mC); pT = C[C@@H](OP(=O)(O)O)[C@H](N)C(=O)O; mC = methacrylate-modified cysteine; pS = N[C@@H](COP(=O)(O)O)C(=O)O; BODIPY = not defined here; Dab = NCC[C@H](N)C(=O)O; X1 = C=C(C*)C(=O)OCC; ClAc = O=C(CCl)*

Assays:
[1] = Peptide stability in buffer and intrinsic reactivity with lysine and cysteine; assay type: physicochemical; settings: room temperature, timescale of days
Description: The intrinsic reactivity and stability of the active peptides with their labeling rates were compared). Their stability was tested in buffer and in the presence of lysine and cysteine at room temperature. […] The reactivity towards cysteine was much higher—the peptides reacted with cysteine to generate both Michael adducts as well as substitution products in which the thiol peptide is released. Peptides SEQ ID 3, SEQ ID 8 and SEQ ID 11 were more than >50% reacted within 2.5 hours.
The LS/MS runs for peptides were performed using the same instrument with a C18-CSH column (300 Å, 1.7 μm, […]) using a gradient starting from 1% B for 1 minute, rising to 95% B in 4.5 minutes, holding at 95% B for 0.75 minutes, then decreasing to 1% B in 0.75 minutes and holding at 1% B for 1 minute. MS data were collected at a range of 80-2500 m/z, using identical conditions for ionization as with the protein.

14-3-3σ [2] = biological target: T1, 14-3-3σ (Homo sapiens, UniProt P31947); assay: Covalent labeling of 14-3-3σ by peptides, intact protein LC/MS; settings: for labeling of 14-3-3σ within 5 hours / labeling of 14-3-3σ after 48 hours / covalent labeling of 14-3-3σ with the expected adduct mass: 14-3-3σ 2 μM; for labeling of 14-3-3σ within 5 hours: time course; for labeling of 14-3-3σ after 48 hours: room temperature; for covalent labeling of 14-3-3σ with the expected adduct mass: peptide 200 μM, 4° C. overnight
T1 sequence (P31947 with tags, fused parts or gaps): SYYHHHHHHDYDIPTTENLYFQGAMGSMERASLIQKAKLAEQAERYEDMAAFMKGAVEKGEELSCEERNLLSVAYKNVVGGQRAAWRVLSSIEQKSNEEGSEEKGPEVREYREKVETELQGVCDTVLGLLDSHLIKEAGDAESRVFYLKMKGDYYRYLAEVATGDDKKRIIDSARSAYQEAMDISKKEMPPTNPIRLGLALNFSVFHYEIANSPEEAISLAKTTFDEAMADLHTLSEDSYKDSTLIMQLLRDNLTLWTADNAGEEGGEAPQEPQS

14-3-3 isoforms = assay: Binding to 14-3-3 isoforms using LC-MS qTOF; settings: protein:peptide 1:5, overnight, 4° C.
Description: The 14-3-3 isoforms were buffer-exchanged into complexation buffer (20 mM HEPES pH 7.5, 100 mM NaCl, 10 mM MgCl2) and mixed with the peptides (3/8) in a 1:5 molar stoichiometry (protein:peptide) at a final concentration of 10 mg/mL. The complexes were buffer-exchanged into milliQ+0.1% formic acid after overnight incubation at 4° C.
UPLC-QToF-MS analysis was performed on a Waters (Milford, MA, USA) Acquity I-Class UPLC system coupled to a Waters Xevo G2 quadrupole time-of-flight (QToF) mass spectrometer. The devices were controlled by MassLynx Software (version 4.1, Waters, MA, USA). Full scan in positive electrospray ionization (ESI+) mode was used as MS acquisition mode with an acquisition range from 200-2000 m/z. […] The samples concentration were 0.01-0.1 mg/mL, and the injection volume was 1 μL. Deconvolution was performed by the MaxEnt1 option of the MassLynx software. Errors were calculated using the MaxEnt Errors option.

14-3-3σ [3] = biological target: T1, 14-3-3σ; assay: Fluorescence polarization competition/binding experiment; settings: 14-3-3σ 0.25 μM, fluorescent peptide 5 nM, 27° C., immediately after mixing
[4] = Differential scanning fluorimetry for Im-E9 complexes; assay type: physicochemical; settings: SYPRO Orange, protein 40 μM
Description: SYPRO Orange (X5000 stock) was diluted 200-fold in buffer, and from this stock 13 μl were added to each sample, diluting the protein to 40 μM. Each sample were split into 3 technical replicates and heated in a thermal cycler over 1.5 hours to 95° C. while measuring the fluorescence.

[5] = biological target: T2, human 14-3-3σ with an N-terminal His6-tag (SEQ ID 28) (human); assay: 2 µM 14-3-3σ with 5 µM peptide, 48 hours at room temperature
T2 chain: T1 sequence (P31947 with tags, fused parts or gaps)

[6] = biological target: T2, human 14-3-3σ with an N-terminal …; assay: time course, intact protein LC/MS; 5 µM peptide, 2 µM 14-3-3σ
[7] = biological target: T2, human 14-3-3σ with an N-terminal …; assay: intact protein LC/MS; 200 µM peptide, 2 µM 14-3-3σ, 4° C. overnight
[8] = biological target: T2, human 14-3-3σ with an N-terminal …; assay: not told how it was measured; probe of the fluorescence polarization experiment

## C=C(CSC[C@H](NC(=O)[C@H](COP(=O)(O)O)NC(=O)[C@H](C)NC(=O)[C@H](CO)NC(=O)[C@H](CCCNC(=N)N)NC(C)=O)C(=O)N1CCC[C@H]1C(=O)N[C@@H](CO)C(=O)N[C@@H](CC(C)C)C(N)=O)C(=O)OCC [SEQ ID 3, Ac-RSApSmCPSL-NH2] (Ac-RSA[pS]C(X1)PSL-NH2)
[1]
  stability in buffer over days: remained unmodified even after 3 days
14-3-3σ [2]; peptide 5 μM, 25° C.
  labeling of 14-3-3σ within 5 hours: 60%
14-3-3σ [2]; peptide 5 μM
  labeling of 14-3-3σ after 48 hours: ~ 75%
14-3-3σ [2]
  covalent labeling of 14-3-3σ with the expected adduct mass: 51%

## C=C(CSC[C@H](NC(=O)[C@H](COP(=O)(O)O)NC(=O)[C@H](Cc1c[nH]cn1)NC(=O)[C@H](C)NC(=O)[C@H](CCCNC(=N)N)NC(C)=O)C(=O)N1CCC[C@H]1C(=O)N[C@@H](C)C(=O)N[C@@H](CO)C(=O)N[C@@H](CC(C)C)C(=O)N[C@@H](CCC(N)=O)C(N)=O)C(=O)OCC [SEQ ID 8, Ac-RAHpSmCPASLQ-NH2] (Ac-RAH[pS]C(X1)PASLQ-NH2)
[1]
  stability in buffer over days: formed a new product with the same mass as the original peptide
14-3-3σ [2]; peptide 5 μM, 25° C.
  labeling of 14-3-3σ within 5 hours: 80%
14-3-3σ [2]; peptide 5 μM
  labeling of 14-3-3σ after 48 hours: 90%
14-3-3σ [2]
  covalent labeling of 14-3-3σ with the expected adduct mass: 35%

## C=C(CSC[C@H](NC(=O)[C@H](CO)NC(=O)[C@H](C)NC(=O)[C@@H]1CCCN1C(=O)[C@H](CO)NC(=O)[C@H](COP(=O)(O)O)NC(=O)[C@H](Cc1c[nH]cn1)NC(=O)[C@H](C)NC(=O)[C@H](CCCNC(=N)N)NC(C)=O)C(=O)N[C@@H](CCC(N)=O)C(N)=O)C(=O)OCC [SEQ ID 11, Ac-RAHpSSPASmCQ-NH2] (Ac-RAH[pS]SPASC(X1)Q-NH2)
[1]
  stability in buffer over days: formed a new product with the same mass as the original peptide
14-3-3σ [2]; peptide 5 μM
  labeling of 14-3-3σ after 48 hours: 100%
14-3-3σ [2]; peptide 5 μM, 25° C.
  free (non-labelled) 14-3-3σ remaining within 2.5 hours: less than 5%
14-3-3σ [2]
  covalent labeling of 14-3-3σ with the expected adduct mass: 11%

## Ac-RAHpSSPASLX-NH2 (Ac-RAH[pS]SPASL[Dab](ClAc)-NH2) [SEQ ID 12, chloroacetamide warhead peptide that reacts with 14-3-3σ via Cys38, used as a positive control]
14-3-3 isoforms
  labeling of 14-3-3 isoforms: labeled only the sigma isoform

## Ac-RAHpSSPAmCLQ-NH2 (Ac-RAH[pS]SPAC(methacrylate)LQ-NH2) [SEQ ID 10]
14-3-3σ [3]; peptide 5 μM
  displacement of the fluorescent binder at 5 μM: had sufficient affinity to displace the fluorescent binder

## Ac-SHpTLmCS-NH2 (Ac-SH[pT]LC(methacrylate)S-NH2) [SEQ ID 2]
14-3-3σ [3]; peptide 200 μM
  displacement of the fluorescent binder at 200 μM: all peptides except peptide SEQ ID 2 displaced the binder

## Im9: immunity protein, inhibitory partner of the E9 nuclease, in its free (unmodified) form
[4]
  unfolding (melting) temperature: around 50 °C

B1: Peptide SEQ ID 8, Ac-RAHpSmCPASLQ-NH2 (peptide)
peptide: Ac-RAH[pS][mC]PASLQ-NH2
[5]
  covalent labeling (%): 90%
[6]
  fold increase of the rate of labeling at 37° C. against 25° C.: ~4 fold
[7]
  covalent labeling (%): 35%

B2: Peptide SEQ ID 1, Ac-SHpTmCPS-NH2 (peptide)
peptide: Ac-SH[pT][mC]PS-NH2
[7]
  covalent labeling (%): ~10%

B3: BODIPY-labeled noncovalent binder for 14-3-3σ (SEQ ID 38) (peptide)
peptide: [Pra′](BODIPY)RAH[pS]PASL[Dab]
modifications: not fully specified (N-terminus, C-terminus); reading uncertain
[8]
  Kd: ~0.1 µM

B4: Peptide SEQ ID 3, Ac-RSApSmCPSL-NH2 (peptide)
peptide: Ac-RSA[pS][mC]PSL-NH2
[5]
  covalent labeling (%): ~75%
[6]
  fold increase of the rate of labeling at 37° C. against 25° C.: ~4 fold
[7]
  covalent labeling (%): 51%

B5: Peptide SEQ ID 11, Ac-RAHpSSPASmCQ-NH2 (peptide)
peptide: Ac-RAH[pS]SPASC(methacrylate)Q-NH2
[5]
  covalent labeling (%): 100%
[7]
  covalent labeling (%): 11%
